Laboratory results from patent publication US9511073B2, “Aromatic amides and uses thereof” (TAXIS Pharmaceuticals, Inc., priority 2011, dated 2016).
In brackets after ≈: the same amount, converted by molar mass.

Each compound was assayed on Staphylococcus aureus (Isolate ID ATCC 29213) (assay: Bacterial assay: MIC by broth microdilution or agar dilution (CLSI), S. aureus ATCC 29213). Details: S. aureus (ATCC29213).
Assay type: cell-based
In short: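 MICs by CLSI broth microdilution or agar dilution against S. aureus ATCC 29213 and its FtsZ-G196A mutant. Values reported as ranges: A ≤0.25 μg/mL, B >0.25–1.0, C >1.0–16, D >16 μg/mL.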

SMILES	S. aureus MIC (μg/mL) Activity Range
NC(=O)c1c(F)ccc(OC(CC(O)CO)c2nc(-c3ccc(C(F)(F)F)cc3)c(Br)o2)c1F (centres unmarked) [Compound 148, 3-(1-(5-bromo-4-(4-(trifluoromethyl)phenyl)oxazol-2-yl)-3,4-dihydroxybutoxy)-2,6-difluorobenzamide]	C (activity>1.0 μg/mL-16 μg/mL)
NC(=O)c1c(F)ccc(OC(CCC(O)CO)c2nc(-c3ccc(C(F)(F)F)cc3)c(Br)o2)c1F (single isomer, unassigned) [Compound 128, 3-((1-(5-bromo-4-(4-(trifluoromethyl)phenyl)oxazol-2-yl)-4,5-dihydroxypentyl)oxy)-2,6-difluorobenzamide (mixture of two diastereomeric pairs of enantiomers)]	B (activity>0.25 μg/mL-1.0 μg/mL)

Same assay, conditions: Staphylococcus aureus, ATCC29213, read-out: S. aureus MIC (μg/mL) Activity Range, S. aureus (ATCC29213)

SMILES	MIC
CNCCNC(=O)OCC(Oc1ccc(F)c(C(N)=O)c1F)c1nc(-c2ccc(C(F)(F)F)cc2)c(Br)o1 (centres unmarked) [Compound 154, 2-(5-bromo-4-(4-(trifluoromethyl)phenyl)oxazol-2-yl)-2-(3-carbamoyl-2,4-difluorophenoxy)ethyl (2-(methylamino)ethyl)carbamate]	1 to 16 µg/mL (≈ 1.65 to 26.3 µM)
COCCOc1ccc(-c2nc(C(CO)Oc3ccc(F)c(C(N)=O)c3F)oc2Br)cc1 (centres unmarked) [Compound 242, 3-(1-(5-bromo-4-(4-(2-methoxyethoxy)phenyl)oxazol-2-yl)-2-hydroxyethoxy)-2,6-difluorobenzamide]	1 to 16 µg/mL (≈ 1.95 to 31.2 µM)
COc1ccc(-c2coc(C(CO)Oc3ccc(F)c(C(N)=O)c3F)n2)c(F)c1 (centres unmarked) [Compound 228, 2,6-difluoro-3-(1-(4-(2-fluoro-4-methoxyphenyl)oxazol-2-yl)-2-hydroxyethoxy)benzamide]	> 16 µg/mL
CC(=O)OCC(Oc1ccc(F)c(C(N)=O)c1F)c1nc(-c2ccc(Cl)cc2)c(Br)o1 (centres unmarked) [Compound 36]	0.25 to 1 µg/mL (≈ 0.485 to 1.94 µM)
Cn1c(CNC(=O)OCC(Oc2ccc(F)c(C(N)=O)c2F)c2nc(-c3ccc(C(F)(F)F)cc3)c(Br)o2)nc2ccccc21 (centres unmarked) [Compound 210, 2-(5-bromo-4-(4-(trifluoromethyl)phenyl)oxazol-2-yl)-2-(3-carbamoyl-2,4-difluorophenoxy)ethyl ((1-methyl-1H-benzo[d]imidazol-2-yl)methyl)carbamate]	0.25 to 1 µg/mL (≈ 0.36 to 1.44 µM)
Cn1cccc1CNC(=O)OCC(Oc1ccc(F)c(C(N)=O)c1F)c1nc(-c2ccc(C(F)(F)F)cc2)c(Br)o1 (centres unmarked) [Compound 202, 2-(5-bromo-4-(4-(trifluoromethyl)phenyl)oxazol-2-yl)-2-(3-carbamoyl-2,4-difluorophenoxy)ethyl ((1-methyl-1H-pyrrol-2-yl)methyl)carbamate]	0.25 to 1 µg/mL (≈ 0.389 to 1.55 µM)
NC(=O)c1c(F)ccc(OC(C(N)=O)c2nc(-c3ccc(Cl)cc3)cs2)c1F (centres unmarked) [Compound 40, 3-(2-amino-1-(4-(4-chlorophenyl)thiazol-2-yl)-2-oxoethoxy)-2,6-difluorobenzamide]	1 to 16 µg/mL (≈ 2.36 to 37.8 µM)
CCCc1oc(C(C)Oc2ccc(F)c(C(N)=O)c2F)nc1-c1ccc(OC)cc1 (centres unmarked) [Compound 15]	0.25 to 1 µg/mL (≈ 0.6 to 2.4 µM)
Cc1noc(CCNC(=O)OCC(Oc2ccc(F)c(C(N)=O)c2F)c2nc(-c3ccc(C(F)(F)F)cc3)c(Br)o2)n1 (centres unmarked) [Compound 171, 2-(5-bromo-4-(4-(trifluoromethyl)phenyl)oxazol-2-yl)-2-(3-carbamoyl-2,4-difluorophenoxy)ethyl (2-(3-methyl-1,2,4-oxadiazol-5-yl)ethyl)carbamate]	0.25 to 1 µg/mL (≈ 0.379 to 1.51 µM)
CCCc1oc(C(C)Oc2ccc(F)c(C(N)=O)c2F)nc1-c1ccccc1 (centres unmarked) [Compound 8]	1 to 16 µg/mL (≈ 2.59 to 41.4 µM)
NC(=O)c1c(F)ccc(OC(COP(=O)(O)O)c2nc(-c3ccc(C(F)(F)F)cc3)c(Br)o2)c1F (centres unmarked) [Compound 81, 2-(5-bromo-4-(4-(trifluoromethyl)phenyl)oxazol-2-yl)-2-(3-carbamoyl-2,4-difluorophenoxy)ethyl dihydrogen phosphate]	0.25 to 1 µg/mL
CC(=O)OCC(Oc1ccc(F)c(C(N)=O)c1F)c1nc(-c2ccc(C#N)cc2)c(Br)o1 (centres unmarked) [Compound 76, 2-(5-bromo-4-(4-cyanophenyl)oxazol-2-yl)-2-(3-carbamoyl-2,4-difluorophenoxy)ethyl acetate]	1 to 16 µg/mL
COC(=O)CCNC(=O)OCC(Oc1ccc(F)c(C(N)=O)c1F)c1nc(-c2ccc(C(F)(F)F)cc2)c(Br)o1 (centres unmarked) [Compound 141, methyl 3-(((2-(5-bromo-4-(4-(trifluoromethyl)phenyl)oxazol-2-yl)-2-(3-carbamoyl-2,4-difluorophenoxy)ethoxy)carbonyl)amino)propanoate]	< 0.25 µg/mL
NC(=O)c1c(F)ccc(OC(CO)c2nc(-c3ccc(C(F)(F)F)cn3)c(Br)o2)c1F (centres unmarked) [Compound 79, 3-(1-(5-bromo-4-(5-(trifluoromethyl)pyridin-2-yl)oxazol-2-yl)-2-hydroxyethoxy)-2,6-difluorobenzamide]	1 to 16 µg/mL (≈ 1.97 to 31.5 µM)
NC(=O)c1c(F)ccc(O[C@H](CO)c2nc(-c3ccc(OC(F)F)cc3)c(Br)o2)c1F [Compound 273B, (R)-3-(1-(5-bromo-4-(4-(difluoromethoxy)phenyl)oxazol-2-yl)-2-hydroxyethoxy)-2,6-difluorobenzamide]	< 0.25 µg/mL
NC(=O)c1c(F)ccc(OC(COC(=O)NCc2cccnc2)c2nc(-c3ccc(C(F)(F)F)cc3)c(Br)o2)c1F (centres unmarked) [Compound 166, 2-(5-bromo-4-(4-(trifluoromethyl)phenyl)oxazol-2-yl)-2-(3-carbamoyl-2,4-difluorophenoxy)ethyl (pyridin-3-ylmethyl)carbamate]	< 0.25 µg/mL
CCCCc1oc(C(CO)Oc2ccc(F)c(C(N)=O)c2F)nc1-c1ccc(C(F)(F)F)cc1 (centres unmarked) [Compound 277, 3-(1-(5-butyl-4-(4-(trifluoromethyl)phenyl)oxazol-2-yl)-2-hydroxyethoxy)-2,6-difluorobenzamide]	1 to 16 µg/mL (≈ 2.06 to 33 µM)

SMILES	MIC
COc1ccc(-c2csc(C(CO)Oc3ccc(F)c(C(N)=O)c3F)n2)cc1 (centres unmarked) [Compound 259, 2,6-difluoro-3-(2-hydroxy-1-(4-(4-methoxyphenyl)thiazol-2-yl)ethoxy)benzamide]	1 to 16 µg/mL (≈ 2.46 to 39.4 µM)
CC(Oc1ccc(F)c(C(N)=O)c1F)c1nc(-c2ccc(Cl)cc2)c(Br)o1 (centres unmarked) [Compound 1]	< 0.25 µg/mL
COc1ccc(-c2coc([C@H](C)Oc3ccc(F)c(C(N)=O)c3F)n2)cc1 [Compound 268A, (S)-2,6-difluoro-3-(1-(4-(4-methoxyphenyl)oxazol-2-yl)ethoxy)benzamide]	> 16 µg/mL
NC(=O)c1c(F)ccc(OC(CNC(=O)OCc2ccccc2)c2nc(-c3ccc(C(F)(F)F)cc3)co2)c1F (centres unmarked) [Compound 276, benzyl (2-(3-carbamoyl-2,4-difluorophenoxy)-2-(4-(4-(trifluoromethyl)phenyl)oxazol-2-yl)ethyl)carbamate]	1 to 16 µg/mL (≈ 1.78 to 28.5 µM)
NC(=O)c1c(F)ccc(OC(CO)c2csc(-c3ccc(C(F)(F)F)cc3)n2)c1F (centres unmarked) [Compound 126, 2,6-difluoro-3-(2-hydroxy-1-(2-(4-(trifluoromethyl)phenyl)thiazol-4-yl)ethoxy)benzamide]	1 to 16 µg/mL (≈ 2.25 to 36 µM)
CC(=O)NNC(=O)CC(Oc1ccc(F)c(C(N)=O)c1F)c1nc(-c2ccc(C(F)(F)F)cc2)c(Br)o1 (centres unmarked) [Compound 100, 3-(3-(2-acetylhydrazinyl)-1-(5-bromo-4-(4-(trifluoromethyl)phenyl)oxazol-2-yl)-3-oxopropoxy)-2,6-difluorobenzamide]	1 to 16 µg/mL (≈ 1.69 to 27.1 µM)
NC(=O)c1c(F)ccc(OC(CO)c2nc(Br)c(-c3ccc(C(F)(F)F)cc3)o2)c1F (centres unmarked) [Compound 149, 3-(1-(4-bromo-5-(4-(trifluoromethyl)phenyl)oxazol-2-yl)-2-hydroxyethoxy)-2,6-difluorobenzamide]	1 to 16 µg/mL (≈ 1.97 to 31.5 µM)
C=CCC(Oc1ccc(F)c(C(N)=O)c1F)c1nc(-c2ccc(C(F)(F)F)cc2)c(Br)o1 (centres unmarked) [Compound 106, 3-((1-(5-bromo-4-(4-(trifluoromethyl)phenyl)oxazol-2-yl)but-3-en-1-yl)oxy)-2,6-difluorobenzamide]	1 to 16 µg/mL (≈ 1.93 to 30.9 µM)
NC(=O)c1c(F)ccc(OC(CO)c2nc(-c3ccc(C(F)(F)F)cc3)sc2Br)c1F (centres unmarked) [Compound 131, 3-(1-(5-bromo-2-(4-(trifluoromethyl)phenyl)thiazol-4-yl)-2-hydroxyethoxy)-2,6-difluorobenzamide]	> 16 µg/mL
CS(=O)(=O)N1CCN(C(=O)OCC(Oc2ccc(F)c(C(N)=O)c2F)c2nc(-c3ccc(C(F)(F)F)cc3)c(Br)o2)C1=O (centres unmarked) [Compound 169, 2-(5-bromo-4-(4-(trifluoromethyl)phenyl)oxazol-2-yl)-2-(3-carbamoyl-2,4-difluorophenoxy)ethyl 3-(methylsulfonyl)-2-oxoimidazolidine-1-carboxylate]	1 to 16 µg/mL (≈ 1.43 to 22.9 µM)
NC(=O)c1c(F)ccc(OC(COC(=O)N2CCOCC2)c2nc(-c3ccc(C(F)(F)F)cc3)c(Br)o2)c1F (centres unmarked) [Compound 160, 2-(5-bromo-4-(4-(trifluoromethyl)phenyl)oxazol-2-yl)-2-(3-carbamoyl-2,4-difluorophenoxy)ethyl morpholine-4-carboxylate]	< 0.25 µg/mL
NC(=O)c1c(F)ccc(OC(CO)c2nc(-c3ccc(F)cc3F)co2)c1F (centres unmarked) [Compound 226, 3-(1-(4-(2,4-difluorophenyl)oxazol-2-yl)-2-hydroxyethoxy)-2,6-difluorobenzamide]	> 16 µg/mL
Cc1ccc(-c2nc(C(CO)Oc3ccc(F)c(C(N)=O)c3F)oc2Br)s1 (centres unmarked) [Compound 244, 3-(1-(5-bromo-4-(5-methylthiophen-2-yl)oxazol-2-yl)-2-hydroxyethoxy)-2,6-difluorobenzamide]	1 to 16 µg/mL (≈ 2.18 to 34.8 µM)
Cc1ccc(-c2csc(C(CO)Oc3ccc(F)c(C(N)=O)c3F)n2)cn1 (centres unmarked) [Compound 264, 2,6-difluoro-3-(2-hydroxy-1-(4-(6-methylpyridin-3-yl)thiazol-2-yl)ethoxy)benzamide]	> 16 µg/mL
Cc1c(CNC(=O)OCC(Oc2ccc(F)c(C(N)=O)c2F)c2nc(-c3ccc(C(F)(F)F)cc3)c(Br)o2)cnn1C (centres unmarked) [Compound 205, 2-(5-bromo-4-(4-(trifluoromethyl)phenyl)oxazol-2-yl)-2-(3-carbamoyl-2,4-difluorophenoxy)ethyl ((1,5-dimethyl-1H-pyrazol-4-yl)methyl)carbamate]	0.25 to 1 µg/mL (≈ 0.38 to 1.52 µM)
CC(=O)OCC(Oc1ccc(F)c(C(N)=O)c1F)c1nc(-c2ccc(S(C)(=O)=O)cc2)c(Br)o1 (centres unmarked) [Compound 144, 2-(5-bromo-4-(4-(methylsulfonyl)phenyl)oxazol-2-yl)-2-(3-carbamoyl-2,4-difluorophenoxy)ethyl acetate]	> 16 µg/mL
